The source of these data is US5736523A, “Antineoplastic heteronapthoquinones” (Biochem Pharma Inc., priority 1995, dated 1998).

The conditions of test [1]: Med. Res. Rev. 1981; cited from earlier work.
The conditions of test [2]: Med. Res. Rev. 1981; cited from earlier work. This is another data set of the same source.
The subject of test [3] is SKOV3 (Ovarian adenocarcinoma). In words: In vitro cytotoxicity, microculture tetrazolium (MTT) assay, SKOV3. It is filed as cell-based, human. To be noted: read-out: IC50. The procedure:
(§1) In Vitro Cytotoxicity--Microculture Tetrazolium Assay
(§2) The microculture tetrazolium assay was used to test in vitro cytotoxicity. This assay is described in Plumb, J. A. et al., 1989 Cancer Research 49, 4435-4440, which is herein incorporated by reference. The cytotoxicity of compounds towards tumor cells is measured in vitro using the assay. This assay method is based upon the ability of live, but not dead cells to reduce the yellow water soluble dye 3-(4;5-dimethylthiazol-2-yl)-2,5-diphenyltetrazolium bromide (MTT) to its water insoluble purple formazan product.
(§3) Human Tumor Cell lines, used were:
SKOV3 (Ovarian adenocarcinoma)--provided by Dr. V. Ling,
(§4) The cells were maintained in exponential growth in culture in minimal essential media (MEM) supplemented with non-essential amino acids, and containing 15% (v/v) fetal bovine serum, 5 mM L-glutamine, 1 mM sodium pyruvate, and 0.1 U/ml insulin. All cell lines were grown at 37° C. in an atmosphere of 5% CO2 in air.
(§5) Test compounds: 20 mM in DMSO and diluted to a final concentration of 200 μM in culture medium before use.
(§6) The following is the generic description of the assay method. It should be noted that although the conditions described work well with the cells listed above, the initial plating density and the MTT concentration used should be verified for each new cell line used to test compounds.
(§7) For each assay, doxorubicin is included as an inter-assay standard. This allows us to monitor the behaviour of the assay in general, and in particular, to check that the SKVLB line has maintained its resistant phenotype.
(§8) The plate layout is done in the following manner: The assays are carried out in 96-well (8 well×12 well) microtiter plates. Serial dilutions of the compound are tested along the length of the plate. A 1:3 serial dilution of compound in culture medium covers a concentration range from 100 μM to 1.7 nM. Each concentration of compound is tested in quadruplet, allowing two compounds to be tested per plate. Wells containing no cells (blank) and cells with no test compound (control) are included on each plate.
(§9) Cells are plated out in 100 μl of culture medium in the microtiter plates at a density of around 1,500-4,000 cells per well. The plates are incubated overnight to allow the cells to become adherent after which the test compound is added (100 μl of appropriate dilution per well). The cells are incubated with test compound at 37° C. for 48 h after which the compound is replaced with fresh medium. After a further 48 h incubation at 37° C., 50 μl of MTT solution (2 mg/ml) is added to each well. The plates are incubated in the dark for 4 h at 37° C. after which the medium is removed. The MTT formazan product is extracted from the cells by the addition of 200 μl DMSO followed by 50 μl of Sorensen's buffer. The plates are shaken briefly and the absorbance at 570 nm is read using a Molecular Devices UV max plate reader. Curves are fit to the MTT assay data using a four parameter logistic equation, and the data are normalized to fit a 0% to 100% survival scale.

The test system of test [4] is SKVLB (Ovarian; multidrug resistant). The test can be described thus: In vitro cytotoxicity, microculture tetrazolium (MTT) assay, SKVLB. Format: cell-based, human. To be noted: for IC50: SKVLB, multidrug resistant, read-out: IC50; for VLB/OV3: ratio SKVLB / SKOV3. In a few lines: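 Multidrug-resistant ovarian SKVLB cells exposed 48 h at 37 °C to 1:3 serial dilutions (100 μM–1.7 nM), then 48 h in fresh medium. MTT reduction read at 570 nm after DMSO extraction; four-parameter logistic fit normalized to 0–100% survival.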

Test [5] deals with T47D (Ductal carcinoma of breast). The test can be described thus: In vitro cytotoxicity, microculture tetrazolium (MTT) assay, T47D. Format: cell-based, human. Particulars: read-out: IC50. The procedure: as §1, §2, §3
T47D (Ductal carcinoma of breast)--ATCC catalog #HTB-133.
as §4, §5, §6, §7, §8, §9

In the next test the test system is Lox (Melanoma). The test can be described thus: In vitro cytotoxicity, microculture tetrazolium (MTT) assay, Lox. Particulars: read-out: IC50. Format: cell-based, human. The procedure:
as §1, §2, §3
Lox (Melanoma)--Southern Research Institute.
as §4, §5, §6, §7, §8, §9

Test [6] relates to HT 29 (Colon adenocarcinoma). In words: In vitro cytotoxicity, microculture tetrazolium (MTT) assay, HT 29. Particulars: read-out: IC50. It is filed as cell-based, human. The procedure:
as §1, §2, §3
HT 29 (Colon adenocarcinoma) ATCC catalog #HTB-38.
as §4, §5, §6, §7, §8, §9

A further test deals with MCF-7. In words: In vitro antitumor activity, MCF-7. Format: cell-based. The procedure: as §2, §8
(§10) Cells are plated out in 100 μl of culture medium in the microtiter plates at a density of around 1,500-4,000 cells per well. […] The plates are shaken briefly and the absorbance at 570 nm is read using a Molecular Devices UV max plate reader. […]

A further test has as its system MCF-7/ADR. In words: In vitro antitumor activity, MCF-7/ADR (adriamycin resistant). Format: cell-based. The procedure: as §2, §8, §10
The next test relates to MAT-B. In words: In vitro antitumor activity, MAT-B. It is filed as cell-based. The procedure: as §2, §8, §10
The subject of another test is MAT-B/ADR. The test can be described thus: In vitro antitumor activity, MAT-B/ADR. Format: cell-based. The procedure:
as §2, §8, §10

The conditions of test [7]: literature; cited from earlier work.

Like-named read-outs stand apart in the source and are kept apart here.

By IC50 is commonly meant the concentration that gives 50% inhibition.

On to `C[C@@H]1O[C@@H](CC(=O)O)CC2=C1C(=O)c1c(O)cccc1C2=O` [nanaomycin A], for which the antibacterial activity entry in test [1] is given as “potent antibacterial”. Further, the antifungal activity entry in test [2] is “antifungal activity”.

With `CC(=O)OC1C(C)OC(OC2OC(C(C)=O)CC3=C2C(=O)c2ccccc2C3=O)C(I)C1OC(C)=O` (mixture of isomers) [BCH2065, (1'S,1R,1S) and (1'S,1S,3R)-methyl-(1-[2',6'-dideoxy-3',4'-diacetoxy-2'-iodo-L-arabino-hexopyranose]-5,10-dioxo-3,4,5,10-tetrahydronaphtho-[2,3-c]-pyran-3-yl) ketone], the IC50 in [3] (SKOV3) was 1540 nM; in test [4], 6100 nM; in test [5], 2200 nM; with Lox (Melanoma) it was 1400 nM; in test [6] (HT29), 3420 nM. The VLB/OV3 in [4] was 4.

As for `CC(=O)[C@H]1CC2=C(C(=O)c3ccccc3C2=O)[C@H](OC2C[C@H](NC(=O)C(F)(F)F)[C@H](O)[C@H](C)O2)O1` (stereo partly drawn) [BCH1146, (1'S,1S,3R)-Methyl (5,10-dioxo-1-(2',3',6'-trideoxy-3'-trifluoroacetamido-4'-hydroxy-L-lyxohexopyranose)-3,4,5,10-tetrahydronaphtho [2,3-C]pyran-3-yl) ketone], the IC50 in test [3] (SKOV3) was found to be 891 nM; in test [4], 6970 nM; in test [5] it was 5870 nM; in the test with Lox (Melanoma), 3820 nM; in [6] (HT29) it was 910 nM; with MCF-7, 44 nM. For the same compound, the IC50 with MCF-7/ADR (MCF-7/ADR) came to 190 nM; in the test with MAT-B, 460 nM; in the test on MAT-B/ADR it was 560 nM. Besides, the VLB/OV3 in test [4] is recorded as 7.82. Besides, in the test on MCF-7 (breast cancer), the “potency in breast cancer, MCF-7, against adriamycin” value is listed as “less potent than adriamycin”. Further, the “effectiveness in the sensitive and adriamycin resistant cell line” value with MCF-7/ADR (MCF-7 sensitive vs adriamycin resistant) is “nearly as effective in the sensitive and adriamycin resistant cell line”.

Turning to `CC(=O)C1CC2=C(C(=O)c3ccccc3C2=O)C(O[C@H]2C[C@H](O)[C@H](O)[C@H](C)O2)O1` (mixture of isomers) [BCH2117, (1'S,1S,3R) and (1'S,1R,3S)-methyl-(1-[dideoxy-2',6'-dihydroxy-3',4'-L-lyxohexopyranose]-5,10-dioxo-3,4,5,10-tetrahydronaphtho-[2,3-c]-pyran-3-yl) ketone], the IC50 in test [3] (SKOV3) came out at 9.5 nM; in test [4], 332 nM; in test [5] it was 37.4 nM; in the test on Lox (Melanoma), 73 nM; in test [6] (HT29), 30 nM. For the same compound, the VLB/OV3 in [4] amounted to 35.13.

On to `C[C@H]1O[C@@H]2CC(=O)O[C@@H]2C2=C1C(=O)c1c(O)cccc1C2=O` [kalafungin], for which, in test [1], the antibacterial activity entry was “potent antibacterial”. Also, the antifungal activity result in [2] is “antifungal activity”.

Turning to `C=CC[C@@H]1CC2=C(C(=O)c3ccccc3C2=O)[C@@H](O[C@H]2C[C@H](NC(=O)C(F)(F)F)[C@H](O)[C@H](C)O2)O1` (mixture of isomers) [BCH2031, (1'S,1S,3S) and (1'S,1-R,3-R)-3-([2',3',6'-trideoxy-3'-trifluoroacetamido-4'-hydroxy-L-lyhohexopyranose]-5,10-dioxo-3,4,5,10-tetrahydronaphtho-[2,3-c]-pyran-3-yl)-propene], the IC50 stood at 6000 nM in [3] (Homo sapiens, SK-OV-3, SKOV3); 18000 nM in [4] (Homo sapiens); 16000 nM in [5] (Homo sapiens); 2800 nM in the test with Lox (Melanoma) (Homo sapiens); 8500 nM in test [6] (Homo sapiens, HT-29, HT29). The VLB/OV3 in test [4] amounted to 3.

Regarding `C=CC[C@H]1CC2=C(C(=O)c3ccccc3C2=O)[C@@H](OC2C[C@H](NC(=O)C(F)(F)F)[C@H](O)[C@H](C)O2)O1` (stereo partly drawn) [BCH1649, (1'-S,1-R,3-S)-3-([2',3',6'-trideoxy-3'-trifluoroacetamido-4'-hydroxy-L-lyhohexopyranose]-5,10-dioxo-3,4,5,10-tetrahydronaphtho-[2,3-c]-pyran-3-yl)-propene], the IC50 in [3] (SKOV3) was 110 nM; in test [4], 459 nM; in [5], 380 nM; with Lox (Melanoma) it was 217 nM; in test [6] (HT29) it was 331 nM. For the same compound, the VLB/OV3 in test [4] is given as 4.17.

As for `COC(=O)C1CC2=C(C(=O)c3c(cc4ccccc4c3O)C2=O)[C@@H](O[C@H]2C[C@H](NC(=O)C(F)(F)F)[C@H](O)[C@H](C)O2)O1` (stereo partly drawn) [pyranoanthraquinone (H)], the antitumor activity entry in test [7] was “possess antitumor activity”.

As to `CCC1CC2=C(C(=O)c3ccccc3C2=O)C(OC2CC(OC(C)=O)C(OC(C)=O)C(C)O2)O1` (mixture of isomers) [BCH1607, (1'S,1S,3S) and (1'S,1R,3R)-5,10-dioxo-3-ethyl-1-(2',3',4',6'-tetradeoxy-3',4'-diacetoxy-L-lyxohexo-pyranose)-3,4,5,10-tetrahydro-1H-naphtho [2,3-C] pyran], the IC50 in [3] (SKOV3) is 7260 nM; in test [4], 19800 nM; in test [5] it was 14700 nM; in the test on Lox (Melanoma) it was 8970 nM; in [6] (HT29) it was 21600 nM. The VLB/OV3 in test [4] came out at 2.73.

Turning to `CC1O[C@H]2CC(=O)O[C@H]2C2=C1C(=O)c1c(O)c3c(c(O)c1C2=O)[C@H]1C[C@@H](O)[C@]3(O)[C@@H](C)O1` (stereo partly drawn) [Granaticin], the antitumor activity entry in test [7] is given as “show antitumor activity”.
